The nature of series [1]: in vitro. The conditions noted are these: human.
The test system of series [2] is U87 cells. The experiment in a line: Cell viability by nuclei count in ZIKV-infected U87 cells. In kind it is cell-based, Human.
Series [3] is described as follows: Cell viability assay (Resazurin), uninfected U87 cells. Type of series: cell-based, Human. The conditions noted are these: human, read-out: Viability CC50 [µM] (95%-CI); for CC50 at 24 h: uninfected U87, 24 h; for CC50 at 48 h: uninfected U87, 48 h; for CC50 at 72 h: uninfected U87, 72 h.
The test system of series [4] is ZIKV. The experiment in a line: Image-based phenotypic antiviral screen in ZIKV-infected U87 cells. Type of series: cell-based, Zika virus (strain H/PF/2013). To be noted: for inhibition at 10 µM: Zika virus, U-87 MG; for Infected Cells (U87, ZIKV) / Viral Titer (ZIKV): screen, U87 cells.
Series [5] is described as follows: Screen cytotoxicity by nuclei count in ZIKV-infected U87 cells. In kind it is cell-based. To be noted: human; for viability at 48 h, 10 µM / viability at 10 µM: ZIKV-infected U87 cells; for viability at 48 h, 10 µM: ZIKV MOI 10, compound 10 µM, nuclei count relative to DMSO; for viability at 10 µM: screen.
The subject of series [6] is ZIKV. The experiment in a line: Antiviral dose-response in ZIKV-infected U87 cells (infected cells, viral titer). The conditions noted are these: for EC50: U87, ZIKV MOI 1, 48 h. Type of series: cell-based, Zika virus (strain H/PF/2013).
For series [7], the system named is HAZV. The experiment in a line: microbe, parasite or virus in culture. Type of series: cell-based, Hazara virus (isolate JC280). The conditions noted are these: for inhibition at 10 µM: Hazara virus, SW13, 24 h; for Infected Cells (SW13, HAZV) / Viral Titer (HAZV): screen, SW13 cells.
Series [8] has as its target hOGG1 (Homo sapiens, UniProt O15527). The series can be described thus: hOGG1 IC50 (listed in supplementary data, method not described). In kind it is biochemical.
Series [9] deals with human brain organoids. The experiment in a line: Viability and structure of ZIKV-infected human cerebral organoids. The conditions noted are these: ZIKV 2 × 10^4 particles/organoid, 5 μM, 7 dpi and 10 dpi.
Series [10] concerns U87 cells. The experiment in a line: Cell viability assay (Resazurin), uninfected U87 cells. To be noted: for CC50: read-out: Viability CC50 [µM] (95%-CI). Type of series: cell-based, Human.
Series [11] concerns ZIKV. The series can be described thus: ZIKV infection (NS1 intensity) and viral titer in human cerebral organoids. Type of series: cell-based, Zika virus (strain H/PF/2013). To be noted: ZIKV 2 × 10^4 particles/organoid, 5 μM, all timepoints, relative to DMSO.
In series [12] the test system is ZIKV. The series can be described thus: Antiviral dose-response in ZIKV-infected Vero cells. To be noted: Zika virus, 48 h. In kind it is cell-based, Zika virus (strain H/PF/2013).
For series [13], the system named is Vero cells. The series can be described thus: Cell viability by nuclei count in ZIKV-infected Vero cells. Type of series: cell-based, African Green Monkey.
Series [14] has as its system ZIKV. The experiment in a line: Time-of-addition assay in ZIKV-infected U87 cells. In kind it is cell-based, Zika virus (strain H/PF/2013).
In series [15] the test system is ZIKV. The experiment in a line: Time course of ZIKV replication in U87 cells (vRNA, infected cells, titer).
Setting [16] is: Homo sapiens, U-87 MG, 48 h, read-out: Viability (nuclei count) EC50 [µM].
[17] abbreviates: U87, ZIKV MOI 10, compound 10 µM, 48 h, relative to DMSO.
[18] abbreviates: ZIKV MOI 10, compound 10 µM, 48 h, relative to DMSO.
The mark [19] stands for this setting: U87, ZIKV MOI 10, compound 10 µM, 48 h, relative to DMSO, read-out: Inhibition of ZIKV titer (%).
Where [20] appears, read: U87, ZIKV MOI 10, compound 10 µM, 48 h, relative to DMSO, read-out: Inhibition of primary ZIKV infection (%).
Setting [21] is: Zika virus, U-87 MG, 48 h, read-out: Antiviral on primary infection IC50 [µM], ZIKV, U87, MOI 10, 48 h.
Setting [22] is: Zika virus, U-87 MG, 48 h, read-out: Antiviral on titer (µM) IC50 [µM], ZIKV, U87, MOI 10, 48 h.
The mark [23] stands for this setting: Zika virus, U-87 MG, ZIKV NS1 staining, read-out: EC50 [μM] Infected cells.
Setting [24] is: Zika virus, U-87 MG, end-point dilution assay, read-out: EC50 [μM] Viral titer.
The mark [25] stands for this setting: read-out: Inhibition of HAZV titer (%).
[26] abbreviates: read-out: Inhibition of primary HAZV infection (%).
[27] abbreviates: U87, ZIKV MOI 10, 100 µM Ribavirin (positive control), 48 h.
Where [28] appears, read: ZIKV MOI 10, 100 µM Ribavirin (positive control), 48 h.
Where [29] appears, read: U87, ZIKV MOI 1, from 24 hpi and onwards.

Structures are written as SMILES. Where two headings read alike, the source gives them in different places.

These results are taken from article PMC7823652 (Viruses, 2020).

Sequence of hOGG1 (O15527 whole entry): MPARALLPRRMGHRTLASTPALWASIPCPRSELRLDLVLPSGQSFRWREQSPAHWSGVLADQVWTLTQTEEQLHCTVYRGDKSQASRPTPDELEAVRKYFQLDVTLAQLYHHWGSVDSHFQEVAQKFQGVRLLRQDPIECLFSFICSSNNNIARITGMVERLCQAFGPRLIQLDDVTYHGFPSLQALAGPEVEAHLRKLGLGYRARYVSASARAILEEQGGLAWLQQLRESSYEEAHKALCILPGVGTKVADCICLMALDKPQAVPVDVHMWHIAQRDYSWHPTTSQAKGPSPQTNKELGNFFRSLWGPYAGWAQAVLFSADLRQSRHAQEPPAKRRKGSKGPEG

Usually viability stands for a per cent measure of how many cells are alive, often set against a control. Low values mean a greater loss of cells, high ones better survival. What is called EC50 is the concentration needed to bring the measured effect to its halfway point. By CC50 is commonly meant the concentration at which the toxic effect on the cells reaches its halfway point. Broadly, the inhibition is the change of the read-out against control, counted positive when it falls. Usually IC50 stands for the concentration at which inhibition is half-maximal. Take `O=C(Nc1ccc(I)cc1)N1CCC(n2c(=O)[nH]c3cc(C(F)(F)F)ccc32)CC1` [TH5264, N-(4-iodophenyl)-4-[2-oxo-5-(trifluoromethyl)-2,3-dihydro-1H-1,3-benzodiazol-1-yl]piperidine-1-carboxamide]: the viability at 24 h, 10 µM in series [1] amounted to 94%. Moreover, the EC50 was found to be 26.7 µM in series [2] (setting [16]), 2.7 µM in [6] (setting [23]) and 3.2 µM in series [6] (setting [24]). Besides, the CC50 at 24 h in [3] was more than 50 µM. Further, the CC50 at 48 h in series [3] is more than 50 µM. In series [3], the CC50 at 72 h was determined as 31.5 µM. Moreover, the “Viral Titer (ZIKV) (%)” value in series [4] (setting [17]) is listed as 2%. Moreover, the “Infected Cells (U87, ZIKV) (%)” value in series [4] (setting [18]) was 46%. The inhibition at 10 µM in series [4] (setting [19]) amounted to 98%; in series [4] (setting [20]), 54%. The “Infected Cells (U87, ZIKV)” value in series [4] was determined as 46%. The “Viral Titer (ZIKV)” value in series [4] was determined as 2%. The same compound registered a viability at 48 h, 10 µM in series [5] (48 h) of 86%. Moreover, the viability at 10 µM in series [5] was 86%. Also, the values for the IC50 in [6] (setting [21]) and in [6] (setting [22]) were 2.7 µM and 3.2 µM, respectively.
In series [1], `O=C(Nc1ccc(I)cc1)N1CCC(n2c(=O)[nH]c3cc(Cl)ccc32)CC1` [TH3289] displayed a viability at 24 h, 10 µM of 77%. Further, the results for the EC50 in series [2] (setting [16]), in series [6] (setting [23]) and in series [6] (setting [24]) were more than 50 µM, 2.8 µM and 2.5 µM, respectively. Also, the CC50 at 24 h in series [3] is more than 50 µM. For the same compound, the CC50 at 48 h in series [3] is more than 50 µM. The CC50 at 72 h in series [3] came to 34 µM. Further, the “Viral Titer (ZIKV) (%)” value in series [4] (setting [17]) turned out to be 4%. In [4] (setting [18]), the “Infected Cells (U87, ZIKV) (%)” value is listed as 59%. In addition, the inhibition at 10 µM in series [4] (setting [19]) was 96%; in [4] (setting [20]) it was 41%; in [7] (setting [25]), 95%; in series [7] (setting [26]), 58%. Also, in series [4], the “Infected Cells (U87, ZIKV)” value turned out to be 59%. Further, in series [4], the “Viral Titer (ZIKV)” value amounted to 4%. This compound yielded a viability at 48 h, 10 µM in [5] (48 h) of 92%. The compound also showed a viability at 10 µM in series [5] of 92%. Moreover, the IC50 amounted to 2.8 µM in series [6] (setting [21]) and 2.5 µM in series [6] (setting [22]). Moreover, in series [7], the “Infected Cells (SW13, HAZV)” value is on record as 42%. In addition, the “Viral Titer (HAZV)” value in series [7] turned out to be 5%.
As to `O=C(Nc1ccc(I)cc1)N1CCC(n2c(=O)[nH]c3c(Br)cccc32)CC1` [TH5487], the IC50 in series [8] was 0.142 µM; in [10] (U87, Resazurin, all measured time points (24, 48 or 72 h), read-out: IC50 (toxicity profile, cellular viability)), more than 50 µM; in series [6] (ZIKV, U87, MOI 10, 48 h, read-out: Antiviral on primary infection IC50), 2.8 µM; in series [6] (ZIKV, U87, MOI 10, 48 h, read-out: Antiviral on titer (µM) IC50), 2 µM. Moreover, the “phenotypic rescue (retained structure of organoids)” value in series [9] is “phenotypic rescue”. Besides, the EC50 stood at 35.2 µM in series [2] (ZIKV, U87, MOI 10, 48 h, read-out: Viability (nuclei count) EC50); 2.8 µM in series [6] (ZIKV NS1 staining, read-out: EC50 [μM] Infected cells); 2 µM in [6] (end-point dilution assay, read-out: EC50 [μM] Viral titer). Also, the CC50 in series [10] (uninfected U87, 24 h) was more than 50 µM; in series [10] (uninfected U87, 48 h), more than 50 µM; in series [10] (uninfected U87, 72 h), more than 50 µM. In addition, the “reduction of ZIKV progeny particles produced by the organoids” value in series [11] was 60–70%.
Turning to `NC(=O)c1ncn([C@@H]2O[C@H](CO)[C@@H](O)[C@H]2O)n1` [Ribavirin, reference compound], in series [1], the viability at 10 µM was 99%. The compound also displayed a viability at 24 h, 10 µM in [1] of 99%. In addition, the EC50 in series [2] (Homo sapiens, U-87 MG, ZIKV, U87, MOI 10, 48 h, read-out: Viability (nuclei count) EC50) is more than 200 µM; in series [2] (ZIKV, U87, MOI 1, 48 h, read-out: Viability (nuclei count) EC50), more than 200 µM; in [13] (Chlorocebus sabaeus, MOI 10, 48 h), more than 200 µM; in [13] (MOI 1, 48 h), more than 200 µM. For the same compound, in [3] (uninfected U87 cells), the CC50 at 24 h was more than 300 µM. The CC50 at 48 h in series [3] (uninfected U87 cells) is more than 300 µM. Besides, the CC50 at 72 h in series [3] (uninfected U87 cells) is more than 300 µM. In addition, the IC50 in series [12] (MOI 1, 48 h, read-out: Antiviral on primary infection IC50) turned out to be 52.6 µM; in series [12] (MOI 1, 48 h, read-out: Antiviral on titer (µM) IC50), 21 µM; in [12] (MOI 10, 48 h, read-out: Antiviral on primary infection IC50), 65.1 µM; in series [12] (MOI 10, 48 h, read-out: Antiviral on titer (µM) IC50), 41 µM; in [6] (Zika virus, U-87 MG, 48 h, ZIKV, U87, MOI 1, 48 h, read-out: Antiviral on primary infection IC50), 60.7 µM; in [6] (Zika virus, U-87 MG, 48 h, ZIKV, U87, MOI 1, 48 h, read-out: Antiviral on titer (µM) IC50) it was 52.8 µM. Besides, the IC50 worked out at 59.2 µM in series [6] (Zika virus, U-87 MG, 48 h, ZIKV, U87, MOI 10, 48 h, read-out: Antiviral on primary infection IC50) and 31.1 µM in [6] (Zika virus, U-87 MG, 48 h, ZIKV, U87, MOI 10, 48 h, read-out: Antiviral on titer (µM) IC50). The “Inhibition of ZIKV titer (%)” value in [4] (setting [27]) was 63%. Moreover, the “Inhibition of primary ZIKV infection (%)” value in [4] (setting [27]) came out at 60%. In addition, the “Viral Titer (ZIKV) (%)” value in [4] (setting [27]) came out at 37%. Besides, in series [4] (setting [28]), the “Infected Cells (U87, ZIKV) (%)” value was determined as 40%. In addition, the “Infected Cells (U87, ZIKV)” value in series [4] turned out to be 40%. Besides, the “Viral Titer (ZIKV)” value in [4] stood at 37%. Besides, in series [5] (setting [28]), the viability at 48 h, 100 µM came to 91%. In addition, in series [14] (U87, ZIKV MOI 10, 100 μM Ribavirin for 24 h after inoculation), the “reduction of ZIKV titers, post-inoculation step” value turned out to be 80%. Also, the “effect on viral titer, later steps (budding)” value in series [14] (U87, ZIKV MOI 10, 100 μM Ribavirin from 22 h for 2 h) is reported as “no effect”. For the same compound, in series [14] (U87, ZIKV MOI 10, 100 μM Ribavirin, pre-treatment and during inoculation), the “effect on viral titer, entry steps” value is on record as “no effect”. Moreover, the inhibition at 10 µM in series [7] (setting [25]) turned out to be 98%; in series [7] (setting [26]), 47%. Besides, in [7], the “Infected Cells (SW13, HAZV)” value turned out to be 53%. Moreover, in series [7], the “Viral Titer (HAZV)” value amounted to 2%. For the same compound, the “intracellular vRNA levels” value in [15] (U87, ZIKV MOI 1, all timepoints (24, 48, 72 h)) is given as “reduced”. Further, the ZIKV titers result in [15] (setting [29]) was “reduced”. Moreover, the “extracellular vRNA” value in series [15] (setting [29]) was “reduced”.
